Data from patent publication US20240150377A1, “MODULATORS OF CYSTIC FIBROSIS TRANSMEMBRANE CONDUCTANCE REGULATOR” (VERTEX PHARMACEUTICALS INCORPORATED, priority 2020, published 2024).
Like-named read-outs stand apart in the source and are kept apart here.

Target: CFTR (Homo sapiens, UniProt P13569)
Experiment: Membrane potential dye, Enteroid Assay B
Type: cell-based
Conditions: for EC50: read-out: Ent. B EC50; for Ent. B Max Activity: chloride transport as % of triple combination control (Enteroid Assay B)
Method: Base medium (ADF+++) consisted of Advanced DMEM/Ham's F12, 2 mM Glutamax, 10 mM HEPES, […] penicillin/streptomycin.
Intestinal enteroid maintenance medium (IEMM) consisted of ADF+++, 1× B27 supplement, 1× N2 supplement, 1.25 mM N-acetyl cysteine, 10 mM Nicotinamide, 50 ng/mL hEGF, 10 nM Gastrin, 1 μg/mL hR-spondin-1, 100 ng/mL hNoggin, TGF-b type 1 inhibitor A-83-01, 100 μg/mL Primocin, 10 μM P38 MAPK inhibitor SB202190.
Bath 1 Buffer consisted of 1 mM MgCl2, 160 mM NaCl, 4.5 mM KCl, 10 mM HEPES, 10 mM Glucose, 2 mM CaCl2).
Chloride Free Buffer consisted of 1 mM Magnesium Gluconate, 2 mM Calcium Gluconate, 4.5 mM Potassium Gluconate, 160 mM Sodium Gluconate, 10 mM HEPES, 10 mM Glucose.
BathI Dye Solution consisted of Bath 1 Buffer, 0.04% Pluronic F127, 20 μM Methyl Oxonol, 30 μM CaCCinh-A01, 30 μM Chicago Sky Blue.
Chloride Free Dye Solution consisted of Chloride Free Buffer, 0.04% Pluronic F127, 20 μM Methyl Oxonol, 30 μM CaCCinh-A01, 30 μM Chicago Sky Blue.
Chloride Free Dye Stimulation Solution consisted of Chloride Free Dye Solution, 10 μM forskolin, 100 μM IBMX, and 300 nM Compound III.
Human intestinal epithelial enteroid cells were obtained from the Hubrecht Institute for Developmental Biology and Stem Cell Research, Utrecht, The Netherlands and expanded in T-Flasks as previously described (Dekkers J F, Wiegerinck C L, de Jonge H R, Bronsveld I, Janssens H M, de Winter-de Groot K M, Brandsma A M, de Jong N W M, Bijvelds M J C, Scholte B J, Nieuwenhuis E E S, van den Brink S, Clevers H, van der Ent C K, Middendorp S and M Beekman J M. A functional CFTR assay using primary cystic fibrosis intestinal organoids. Nat Med. 2013 July;19(7):939-45.).
3. Enteroid Cell Harvesting and Seeding
Cells were recovered in cell recovery solution, collected by centrifugation at 650 rpm for 5 min at 4° C., resuspended in TrypLE and incubated for 5 min at 37° C. Cells were then collected by centrifugation at 650 rpm for 5 min at 4° C. and resuspended in IEMM containing 10 μM ROCK inhibitor (RI). The cell suspension was passed through a 40 μm cell strainer and resuspended at 1×10^6 cells/mL in IEMM containing 10 μM RI. Cells were seeded at 5000 cells/well into multi-well plates and incubated for overnight at 37° C., 95% humidity and 5% CO2 prior to assay.
5. Membrane Potential Dye, Enteroid Assay B
Enteroid cells were incubated with test compound in IEMM for 18-24 hours at 37° C., 95% humidity and 5% CO2. […] Briefly, cells were washed 5 times in Bath 1 Buffer. Bath 1 Dye Solution was added and the cells were incubated for 25 min at room temperature. Following dye incubation, cells were washed 3 times in Chloride Free Dye Solution. Chloride transport was initiated by addition of Chloride Free Dye Stimulation Solution and the fluorescence signal was read for 15 min. […] Chloride transport was then expressed as a percentage of the chloride transport following treatment with 1 μM (14S)-8-[3-(2-{Dispiro[2.0.2.1]heptan-7-yl}ethoxy)-1H-pyrazol-1-yl]-12,12-dimethyl-2λ^6-thia-3,9,11,18,23-pentaazatetracyclo[17.3.1.111,14.05,10]tetracosa-1(22),5,7,9,19(23),20-hexaene-2,2,4-trione, 3 μM (R)-1-(2,2-difluorobenzo[d][1,3]dioxol-5-yl)-N-(1-(2,3-dihydroxypropyl)-6-fluoro-2-(1-hydroxy-2-methylpropan-2-yl)-1H-indol-5-yl)cyclopropanecarboxamide and 300 nM acute N-[2,4-bis(1,1-dimethylethyl)-5-hydroxyphenyl]-1,4-dihydro-4-oxoquinoline-3-carboxamide triple combination control (% Activity).

[1] = Table 8, human enteroid cells, 18-24 hours, acute 10 μM forskolin and 300 nM ivacaftor

CFTR, sequence (P13569 with tags, fused parts or gaps DEL508-508): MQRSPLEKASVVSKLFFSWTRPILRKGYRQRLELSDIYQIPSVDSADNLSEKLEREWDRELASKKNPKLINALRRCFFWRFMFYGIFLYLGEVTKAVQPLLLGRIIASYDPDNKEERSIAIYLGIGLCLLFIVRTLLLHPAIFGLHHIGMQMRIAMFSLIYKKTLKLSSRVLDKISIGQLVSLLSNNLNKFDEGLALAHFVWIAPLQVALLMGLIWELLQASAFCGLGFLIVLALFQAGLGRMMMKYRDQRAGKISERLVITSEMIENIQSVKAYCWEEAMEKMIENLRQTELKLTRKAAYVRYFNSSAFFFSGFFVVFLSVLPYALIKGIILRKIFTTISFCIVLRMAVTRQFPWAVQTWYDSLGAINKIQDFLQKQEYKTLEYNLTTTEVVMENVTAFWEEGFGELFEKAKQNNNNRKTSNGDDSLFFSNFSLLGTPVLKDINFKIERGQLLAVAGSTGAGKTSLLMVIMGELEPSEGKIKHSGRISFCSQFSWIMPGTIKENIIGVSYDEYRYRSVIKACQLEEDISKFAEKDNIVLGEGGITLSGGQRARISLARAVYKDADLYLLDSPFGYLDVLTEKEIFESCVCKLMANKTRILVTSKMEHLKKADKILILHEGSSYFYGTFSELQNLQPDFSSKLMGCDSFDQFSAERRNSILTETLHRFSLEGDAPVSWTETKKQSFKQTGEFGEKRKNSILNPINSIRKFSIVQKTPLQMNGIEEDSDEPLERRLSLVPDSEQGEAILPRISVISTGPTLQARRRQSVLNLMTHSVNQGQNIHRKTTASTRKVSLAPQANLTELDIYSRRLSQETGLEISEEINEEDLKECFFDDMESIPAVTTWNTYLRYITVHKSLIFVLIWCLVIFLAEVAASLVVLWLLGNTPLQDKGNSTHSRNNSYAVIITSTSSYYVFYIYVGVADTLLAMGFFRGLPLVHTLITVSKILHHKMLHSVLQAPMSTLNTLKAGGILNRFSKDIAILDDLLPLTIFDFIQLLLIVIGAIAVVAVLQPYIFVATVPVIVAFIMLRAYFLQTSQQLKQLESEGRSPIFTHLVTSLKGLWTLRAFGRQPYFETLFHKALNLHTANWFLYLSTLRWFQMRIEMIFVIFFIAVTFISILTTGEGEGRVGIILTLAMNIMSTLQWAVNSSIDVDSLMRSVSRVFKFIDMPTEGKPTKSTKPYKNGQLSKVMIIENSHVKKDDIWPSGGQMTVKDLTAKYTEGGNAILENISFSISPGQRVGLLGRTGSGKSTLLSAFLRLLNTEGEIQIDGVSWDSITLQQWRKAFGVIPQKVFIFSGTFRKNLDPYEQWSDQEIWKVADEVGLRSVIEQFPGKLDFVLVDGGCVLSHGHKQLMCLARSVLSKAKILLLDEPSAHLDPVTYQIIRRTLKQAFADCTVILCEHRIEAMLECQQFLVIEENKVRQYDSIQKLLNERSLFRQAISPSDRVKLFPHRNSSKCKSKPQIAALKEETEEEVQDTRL

Row | SMILES | Ent. B Max Activity (%) (Table 9) | EC50 (Table 9) [nM] | Ent. B Max Activity (Table 8) | EC50 [1] [nM] | other results
1 | Cc1cccc(C)c1-c1cc2nc(n1)NS(=O)(=O)c1cccc(c1)C(=O)N(CC13CCC(O)(CC1)CC3)[C@H](CC(C)(C)C)CO2 [Compound 800] | +++ (+++ is >600%) | < 1000 |  |  | 
2 | Cc1cccc(C)c1-c1cc2nc(n1)NS(=O)(=O)c1cccc(c1)C(=O)N(CCC1(C(F)(F)F)CC1)[C@@H]1CN(C3CC4(CCCCC4)C3)C[C@H]1O2 [Compound 1190, (3R,7R)-19-(2,6-Dimethylphenyl)-5-{spiro[3.5]nonan-2-yl}-8-{2-[1-(trifluoromethyl)cyclopropyl]ethyl}-2-oxa-15λ^6-thia-5,8,16,18,21-pentaazatetracyclo[15.3.1.110,14.03,7]docosa-1(20),10(22),11,13,17(21),18-hexaene-9,15,15-trione] | ++ (++ is 30-60%) | < 1000 |  |  | 
3 | Cc1cccc(C)c1-c1cc2nc(n1)NS(=O)(=O)c1cccc(c1)CN(CCCCO)[C@H](CC(C)C)CO2 [Compound 46, 4-[(11R)-6-(2,6-Dimethylphenyl)-11-isobutyl-2,2-dioxo-9-oxa-2λ^6-thia-3,5,12,19-tetrazatricyclo[12.3.1.14,8]nonadeca-1(18),4(19),5,7,14,16-hexaen-12-yl]butan-1-ol] |  |  | +++ (+++ is >60%) | < 1000 | 
4 | Cc1cccc(C)c1-c1cc2nc(n1)NS(=O)(=O)c1cc(nn1C)C(=O)N(Cc1ncccn1)[C@H](CC(C)(C)C)CO2 [Compound 70, (10R)-15-(2,6-Dimethylphenyl)-10-(2,2-dimethylpropyl)-5-methyl-3,3-dioxo-9-(pyrimidin-2-ylmethyl)-12-oxa-3λ^6-thia-2,5,6,9,16,17-hexazatricyclo[11.3.1.14,7]octadeca-1(17),4(18),6,13,15-pentaen-8-one] |  |  | ++ (++ is 30-60%) | < 1000 | 
5 | CC(=O)N(C)CCN1C(=O)c2cccc(c2)S(=O)(=O)Nc2nc(cc(-c3c(C)cccc3C)n2)OC[C@H]1CC(C)C [Compound 405] |  |  | +++ (+++ is >60%) | < 1000 | 
6 | Cc1cccc(C)c1-c1cc2nc(n1)NS(=O)(=O)c1cccc(c1)C(=O)N(CCCNC(=O)OC(C)C)[C@H](CC(C)C)CO2 [Compound 408] |  |  |  |  | Ent. B Max Activity (Table 7): +++ (+++ is >60%); EC50 (Table 7, human enteroid cells, 18-24 hours, acute 10 μM forskolin and 300 nM ivacaftor): < 1000 nM
7 | Cc1cccc(C)c1-c1cc2nc(n1)NS(=O)(=O)c1cccc(n1)C(=O)N(Cc1ccccn1)[C@H](CC(C)(C)C)CO2 [Compound 1084] |  |  | +++ (+++ is >60%) | < 1000 | 
8 | CC(=O)NCCCN1C(=O)c2cccc(c2)S(=O)(=O)Nc2nc(cc(-c3c(C)cccc3C)n2)OC[C@H]1CC(C)C [Compound 404] |  |  | +++ (+++ is >60%) | < 1000 | 
9 | Cc1cccc(C)c1-c1cc2nc(n1)NS(=O)(=O)c1cccc(c1)C(=O)N(CC1CC(O)(Cc3ccccc3)C1)[C@H](CC(C)(C)C)CO2 (single isomer, unassigned) [Compound 67] | +++ (+++ is >600%) | < 1000 |  |  | 
10 | Cc1cccc(C)c1-c1cc2nc(n1)NS(=O)(=O)c1cccc(n1)C(=O)N(CCCCC(C)(C)O)[C@H](CC(C)(C)C)CO2 [Compound 76, (11R)-6-(2,6-Dimethylphenyl)-11-(2,2-dimethylpropyl)-12-(5-hydroxy-5-methylhexyl)-9-oxa-2λ^6-thia-3,5,12,18,19-pentaazatricyclo[12.3.1.14,8]nonadeca-1(18),4(19),5,7,14,16-hexaene-2,2,13-trione] |  |  | +++ (+++ is >60%) | < 1000 | 

Further lines, with some results ahead:

Row | Ent. B Max Activity (%) (Table 9) | EC50 (Table 9) [nM] | Ent. B Max Activity (Table 8) | EC50 [1] [nM] | SMILES | other results
11 | +++ (+++ is >600%) | < 1000 |  |  | Cc1cccc(C)c1-c1cc2nc(n1)NS(=O)(=O)c1cccc(c1)C(=O)N(CCc1ccc(C(C)(C)O)cc1)[C@H](CC(C)(C)C)CO2 [Compound 108, (11R)-6-(2,6-Dimethylphenyl)-11-(2,2-dimethylpropyl)-12-[2-[4-(1-hydroxy-1-methyl-ethyl)phenyl]ethyl]-2,2-dioxo-9-oxa-2λ^6-thia-3,5,12,19-tetrazatricyclo[12.3.1.14,8]nonadeca-1(18),4(19),5,7,14,16-hexaen-13-one] | 
12 | +++ (+++ is >600%) | < 1000 |  |  | Cc1cccc(C)c1-c1cc2nc(n1)NS(=O)(=O)c1cccc(c1)C(=O)N(CC13CC(C(C)(C)O)(C1)C3)[C@H](CC(C)(C)C)CO2 [Compound 69, (11R)-6-(2,6-Dimethylphenyl)-11-(2,2-dimethylpropyl)-12-[[3-(1-hydroxy-1-methyl-ethyl)-1-bicyclo[1.1.1]pentanyl]methyl]-2,2-dioxo-9-oxa-2λ^6-thia-3,5,12,19-tetrazatricyclo[12.3.1.14,8]nonadeca-1(18),4(19),5,7,14,16-hexaen-13-one] | 
13 | +++ (+++ is >600%) | < 1000 |  |  | Cc1cccc(C)c1-c1cc2nc(n1)NS(=O)(=O)c1cccc(c1)C(=O)N(Cc1ccn3nccc3c1)[C@H](CC(C)(C)C)CO2 [Compound 791] | 
14 |  |  | ++ (++ is 30-60%) | 1000 to 3000 | Cc1cccc(C)c1-c1cc2nc(n1)NS(=O)(=O)c1cccc(c1)C(=O)N(Cc1ccc(C(C)(C)O)cc1)[C@H](CCC(C)(C)O)CO2 [Compound 661] | 
15 |  |  | +++ (+++ is >60%) | < 1000 | Cc1cccc(C)c1-c1cc2nc(n1)NS(=O)(=O)c1cccc(c1)C(=O)N(Cc1ccc(C(C)(C)O)nc1)[C@H](CC(C)(C)C)CO2 [Compound 1089] | 
16 |  |  | +++ (+++ is >60%) | < 1000 | Cc1cccc(C)c1-c1cc2nc(n1)NS(=O)(=O)c1cccc(c1)C(=O)N(CC1CC(C)(O)C1)[C@H](CC(C)(C)C)CO2 (stereo partly drawn) [Compound 665] | 
17 | +++ (+++ is >600%) | < 1000 |  |  | Cc1cccc(C)c1-c1cc2nc(n1)NS(=O)(=O)c1cccc(c1)C(=O)N(Cc1ccc(CC(N)=O)cc1)[C@H](CC(C)(C)C)CO2 [Compound 847] | 
18 | +++ (+++ is >600%) | < 1000 |  |  | CC(=O)Nc1cccc(CN2C(=O)c3cccc(c3)S(=O)(=O)Nc3nc(cc(-c4c(C)cccc4C)n3)OC[C@H]2CC(C)(C)C)n1 [Compound 391] | 
19 |  |  | +++ (+++ is >60%) | < 1000 | Cc1cccc(C)c1-c1cc2nc(n1)NS(=O)(=O)c1cccc(c1)C(=O)N(Cc1cccnc1)[C@H](CC(C)(C)C)CO2 [Compound 1086] | 
20 | +++ (+++ is >600%) | < 1000 |  |  | Cc1cccc(C)c1-c1cc2nc(n1)NS(=O)(=O)c1cccc(c1)C(=O)N(Cc1ccc(S(F)(F)(F)(F)F)cc1)[C@H](CC(C)(C)C)CO2 [Compound 801] | 
21 |  |  | ++ (++ is 30-60%) | 1000 to 3000 | Cc1cccc(C)c1-c1cc2nc(n1)NS(=O)(=O)c1cccc(c1)C(=O)N(Cc1ncccn1)[C@H](CCC(C)(C)O)CO2 [Compound 659] | 
22 | +++ (+++ is >600%) | < 1000 |  |  | Cc1cccc(C)c1-c1cc2nc(n1)NS(=O)(=O)c1cccc(c1)C(=O)N(CC1CCC(C(C)(C)O)CC1)[C@H](CC(C)(C)C)CO2 (stereo partly drawn) [Compound 797] | 
23 |  |  | +++ (+++ is >60%) | < 1000 | COc1cnc(CN2C(=O)c3cccc(c3)S(=O)(=O)Nc3nc(cc(-c4c(C)cccc4C)n3)OC[C@H]2CC(C)(C)C)cn1 [Compound 1099] | 
24 |  |  | +++ (+++ is >60%) | < 1000 | Cc1cccc(C)c1-c1cc2nc(n1)NS(=O)(=O)c1cccc(c1)C(=O)N(Cc1cncnc1)[C@H](CC(C)(C)C)CO2 [Compound 1095] | 
